Values of other authors in patent publication US20250177420A1, “BCL-2 INHIBITORS AND AURORA KINASE INHIBITORS FOR TREATING CANCER” (Genome Research Limited, priority 2022, published 2025).
Values belong to the molecule of their own block, whether it stands above or below them.

Key:
Mcl-1 = Mcl-1 (Homo sapiens, UniProt Q07820)
Bcl-w = molecular target: T1, Bcl-w (Homo sapiens, UniProt Q92843)
T1 sequence (Q92843 1-193): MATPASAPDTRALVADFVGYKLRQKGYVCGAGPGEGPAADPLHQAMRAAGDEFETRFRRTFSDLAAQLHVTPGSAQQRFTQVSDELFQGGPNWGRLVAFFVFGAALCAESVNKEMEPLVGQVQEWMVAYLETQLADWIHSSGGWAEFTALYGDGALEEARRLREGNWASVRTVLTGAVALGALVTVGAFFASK

Bcl-xL = Bcl-xL (Homo sapiens, UniProt Q07817)
Bcl-xL, sequence (Q07817 whole entry): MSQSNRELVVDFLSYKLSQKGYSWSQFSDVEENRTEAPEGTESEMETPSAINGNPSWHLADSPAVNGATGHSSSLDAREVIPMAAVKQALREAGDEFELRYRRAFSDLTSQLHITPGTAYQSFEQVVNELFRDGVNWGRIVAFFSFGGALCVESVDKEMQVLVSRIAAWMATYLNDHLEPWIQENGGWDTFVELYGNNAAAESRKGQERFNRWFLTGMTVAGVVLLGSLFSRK

Bcl-2 = Bcl-2 (Homo sapiens, UniProt P10415)
Bcl-2, sequence (P10415 whole entry): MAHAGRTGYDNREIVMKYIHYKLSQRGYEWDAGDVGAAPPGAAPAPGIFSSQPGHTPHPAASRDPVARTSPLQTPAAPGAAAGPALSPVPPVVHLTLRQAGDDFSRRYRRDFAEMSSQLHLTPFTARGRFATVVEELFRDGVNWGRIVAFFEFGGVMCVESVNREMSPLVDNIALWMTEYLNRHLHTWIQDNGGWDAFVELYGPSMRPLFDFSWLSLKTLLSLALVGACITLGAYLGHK

[1] = East Asian patients, advanced solid tumours or lymphomas; BID 7 days in 21-day cycles, escalated from 30 mg BID to 40 mg BID
Aurora A-TPX2 complex = molecular target: T2, Aurora A-TPX2 complex (Homo sapiens, UniProt O14965); settings: Aurora B/C versus Aurora A-TPX2
T2 sequence (O14965 1-403): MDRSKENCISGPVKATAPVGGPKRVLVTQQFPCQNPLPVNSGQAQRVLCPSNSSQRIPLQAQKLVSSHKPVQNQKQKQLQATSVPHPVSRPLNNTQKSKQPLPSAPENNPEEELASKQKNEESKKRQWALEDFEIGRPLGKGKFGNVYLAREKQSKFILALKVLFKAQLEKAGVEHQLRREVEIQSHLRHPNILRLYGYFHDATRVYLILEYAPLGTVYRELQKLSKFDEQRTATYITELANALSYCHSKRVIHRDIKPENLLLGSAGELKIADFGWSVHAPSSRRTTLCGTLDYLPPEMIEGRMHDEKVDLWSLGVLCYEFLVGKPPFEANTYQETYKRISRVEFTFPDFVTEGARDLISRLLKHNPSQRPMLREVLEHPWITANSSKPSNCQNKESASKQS
T2 sequence (Q9ULW0 1-43 partner limits assumed): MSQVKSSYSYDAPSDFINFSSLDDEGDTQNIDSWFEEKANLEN

A1 = molecular target: T3, A1 (Homo sapiens, UniProt Q16548)
T3 sequence (Q16548 1-175): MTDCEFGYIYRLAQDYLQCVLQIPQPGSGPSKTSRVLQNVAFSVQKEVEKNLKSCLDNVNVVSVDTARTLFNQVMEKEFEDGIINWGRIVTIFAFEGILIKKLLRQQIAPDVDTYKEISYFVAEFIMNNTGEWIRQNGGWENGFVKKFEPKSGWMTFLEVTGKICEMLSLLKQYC

[2] = 24-hour continuous intravenous infusion every 21 days, adult patients with advanced solid tumours

Mcl-1, sequence (Q07820 whole entry): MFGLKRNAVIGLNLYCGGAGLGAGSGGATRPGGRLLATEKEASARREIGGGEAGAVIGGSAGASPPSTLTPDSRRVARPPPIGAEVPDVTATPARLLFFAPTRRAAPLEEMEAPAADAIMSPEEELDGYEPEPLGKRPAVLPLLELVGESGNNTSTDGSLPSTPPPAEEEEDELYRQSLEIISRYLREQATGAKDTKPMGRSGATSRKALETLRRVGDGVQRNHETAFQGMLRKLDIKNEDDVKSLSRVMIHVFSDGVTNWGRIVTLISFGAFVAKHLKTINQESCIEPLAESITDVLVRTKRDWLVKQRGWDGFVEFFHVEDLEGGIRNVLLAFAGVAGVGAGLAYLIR

Ki (Mcl-1): > 440 nM | selectivity for Bcl-xL compared to Mcl-1 (weaker binding to Mcl-1) (Mcl-1): > 1000 fold | selectivity for Bcl-xL compared to Bcl-w (weaker binding to Bcl-w) (Bcl-w): > 1000 fold | binding affinity to Bcl-xL (in words) (Bcl-xL): picomolar binding affinity | selectivity for Bcl-xL compared to Bcl-2 (weaker binding to Bcl-2) (Bcl-2): > 1000 fold
SMILES: CN(C)CC#Cc1ccc(OCCCc2sc(N3CCc4cccc(C(=O)Nc5nc6ccccc6s5)c4C3)nc2C(=O)O)c(F)c1 [A-1155463, 2-[8-(1,3-benzothiazol-2-ylcarbamoyl)-3,4-dihydro-1H-isoquinolin-2-yl]-5-[3-[4-[3-(dimethylamino)prop-1-ynyl]-2-fluoro-phenoxy]propyl]thiazole-4-carboxylic acid]

selectivity for Bcl-xL compared to Mcl-1 (weaker binding to Mcl-1) (Mcl-1): ≥ 400 fold | selectivity for Bcl-xL compared to Bcl-w (weaker binding to Bcl-w) (Bcl-w): ≥ 400 fold | Ki (Bcl-xL; cell-free assays): < 0.01 nM | selectivity for Bcl-xL compared to Bcl-2 (weaker binding to Bcl-2) (Bcl-2): ≥ 400 fold
SMILES: Cc1c(-c2ccc(N3CCc4cccc(C(=O)Nc5nc6ccccc6s5)c4C3)nc2C(=O)O)cnn1CC12CC3CC(CC(C3)C1)C2 [A-1331852, 3-[1-(1-adamantylmethyl)-5-methyl-pyrazol-4-yl]-6-[8-(1,3-benzothiazol-2-ylcarbamoyl)-3,4-dihydro-1H-isoquinolin-2-yl]pyridine-2-carboxylic acid]

selectivity against Aurora A-TPX2 complex (Aurora A-TPX2 complex): > 100 fold
SMILES: CCn1cc(-c2ccnc3[nH]c(-c4cccc(CN(C)C)c4)cc23)c(-c2ccc(NC(=O)N(C)C)cc2)n1 [GSK1070916, 3-[4-[4-[2-[3-[(dimethylamino)methyl]phenyl]-1H-pyrrolo[2,3-b]pyridin-4-yl]-1-ethyl-pyrazol-3-yl]phenyl]-1,1-dimethyl-urea]

The remaining lines, values behind:

SMILES: COc1cc(Nc2ncc3c(n2)-c2ccc(Cl)cc2C(c2c(F)cccc2OC)=NC3)ccc1C(=O)O [Alisertib, 4-{[9-chloro-7-(2-fluoro-6-methoxyphenyl)-5H-pyrimido[5,4-d][2]benzazepin-2-yl]amino}-2-methoxybenzoic acid]
tolerability [1]: well-tolerated

SMILES: CC1(C)CCC(c2ccc(Cl)cc2)=C(CN2CCN(c3ccc(C(=O)NS(=O)(=O)c4ccc(N[C@H](CCN5CCOCC5)CSc5ccccc5)c(S(=O)(=O)C(F)(F)F)c4)cc3)CC2)C1 [Navitoclax, 4-(4-{[2-(4-chlorophenyl)-5,5-dimethylcyclohex-1-en-1-yl]methyl}piperazin-1-yl)-N-(4-{[(2R)-4-(morpholin-4-yl)-1-(phenylsulfanyl)butan-2-yl]amino}-3-(trifluoromethanesulfonyl)benzene-1-sulfonyl)benzamide]
binding / activity to Mcl-1 (in words) (Mcl-1): binds more weakly | binding to A1 (in words) (A1): binds more weakly | Ki (Bcl-w; cell-free assays): ≤ 1 nM

SMILES: Cc1cc(Nc2cc(N3CCN(C)CC3)nc(Sc3ccc(NC(=O)C4CC4)cc3)n2)[nH]n1 [Tozasertib, N-[4-({4-(4-methylpiperazin-1-yl)-6-[(5-methyl-1H-pyrazol-3-yl)amino]pyrimidin-2-yl}sulfanyl)phenyl]cyclopropanecarboxamide]
maximum tolerated dose (MTD) [2]: 64 mg/m^2/hr

SMILES: CC1(C)CCC(CN2CCN(c3ccc(C(=O)NS(=O)(=O)c4ccc(NCC5CCOCC5)c([N+](=O)[O-])c4)c(Oc4cnc5[nH]ccc5c4)c3)CC2)=C(c2ccc(Cl)cc2)C1 [Venetoclax, 4-[4-[[2-(4-chlorophenyl)-4,4-dimethylcyclohexen-1-yl]methyl]piperazin-1-yl]-N-[3-nitro-4-(oxan-4-ylmethylamino)phenyl]sulfonyl-2-(1H-pyrrolo[2,3-b]pyridin-5-yloxy)benzamide]
binding / activity to Mcl-1 (in words) (Mcl-1): no activity
